According to US12220412B2, “Methods for administering corticosteroids” (Sparrow Pharmaceuticals, Inc., priority 2018, dated 2025):

Assays:
[1] = test system: Adults with painful diabetic peripheral neuropathy; assay: 6-week randomized trial in adults with painful diabetic peripheral neuropathy (pain relief, glycemic control, lipids, blood pressure, weight); type: in vivo, human; set-up: Weight / HbA1c (%) / Plasma glucose / Urine glucose (% positive) / Cholesterol / Triglycerides / Systolic BP (mm Hg) / Diastolic BP (mm Hg): reference not given here
Description: Adults with painful diabetic peripheral neuropathy were randomized to treatment with SPI-62, placebo for SPI-62, or pregabalin (positive control) for 6 weeks. […] The trial was terminated. Descriptive analysis on parameters of glycemic control, blood lipids, blood pressure, and weight was conducted. […] As this was an exploratory analysis, statistical hypothesis tests were not performed.

magnesium-deficient mice = assay: Corticosterone (CS)-induced tail biting behavior in magnesium-deficient mice given N-methyl-D-aspartate; type: in vivo; conditions: N-methyl-D-aspartate and corticosterone, single doses of 0.3 to 3 mg/kg
Text: (§1) (a) no CS; (b)-(f) CS; dosage of Compound A (mg/kg): (b) 0; (c) 0.01; (d) 0.03; (e) 1; (f) 3.
Increased tail biting, an anxiety behavior, was induced in magnesium-deficient mice with administration of N-methyl-D-aspartate and corticosterone (CS). Tail biting was not induced by N-methyl-D-aspartate without co-administration of CS (FIG. 9(a)).

mice = assay: Corticosterone-induced deficit of Y-maze exploration (alternation rate); type: in vivo; conditions: single doses of 0.3 to 3 mg/kg
Text: as §1
Mice typically prefer to explore the novel arm of a Y-maze, a behavior considered indicative of short-term memory. Corticosterone (CS) decreases the percentage of times mice enter the novel arm of a Y maze, and so is considered to have a negative cognitive effect.

HSD-1 [2] = target: T1, HSD-1 (Homo sapiens, UniProt P28845); assay: Urinary (tetrahydrocortisol+allotetrahydrocortisol)/tetrahydrocortisone ratio as indicator of HSD-1 activity in clinical trial subjects; type: in vivo; set-up: from tissue; host or cells: in vivo, human subjects; conditions: for mean HSD-1 ratio (significantly decreased HSD-1 activity): both days 1 and 18
T1 sequence (P28845 whole entry): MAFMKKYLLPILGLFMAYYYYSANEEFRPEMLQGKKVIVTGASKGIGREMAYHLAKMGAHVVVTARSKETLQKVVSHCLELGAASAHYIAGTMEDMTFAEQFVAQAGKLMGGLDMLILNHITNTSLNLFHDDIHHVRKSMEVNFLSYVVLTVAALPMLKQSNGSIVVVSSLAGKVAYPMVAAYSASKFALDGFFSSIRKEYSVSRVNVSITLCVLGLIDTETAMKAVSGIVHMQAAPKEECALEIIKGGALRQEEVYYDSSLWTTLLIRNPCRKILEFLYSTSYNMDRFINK
Description: Following a minimum of a 10-hour fast, healthy adult racially diverse male and female subjects were administered Compound A (ASP3662) or placebo for Compound A with 240 mL of room temperature water. Subjects continued to fast from any food and drinks (water was allowed as desired except for 1 hour before and 1 hour after study drug administration) until 4 hours after study drug administration. Urine samples were collected for the measurement of cortisol, cortisone, tetrahydrocortisol (5α, 5β) and tetrahydrocortisone. The cumulative amount of each entity excreted in the urine was calculated for each subject from time zero to 24 hours after dosing (Ae24), from 24 hours after dosing to 48 hours after dosing (Ae48), and Aelast.
The ratio of 5α-tetrahydrocortisol+5β-tetrahydrocortisol to urinary tetrahydrocortisone was used as an indicator of HSD-1 activity. Compound A decreased the 5α-tetrahydrocortisol+5β-tetrahydrocortisol to urinary tetrahydrocortisone ratio with increasing dose compared to placebo, resulting in approximately 80% inhibition at 6 mg. […]

HSD-1 [3] = target: T1, HSD-1; assay: Brain HSD-1 occupancy by PET with [11C]AS2471907 after single dose; type: in vivo; set-up: from tissue; host or cells: in vivo, human subjects; conditions: for HSD-1 occupancy: single dose 3 mg
Description: The level and time course of HSD-1 occupancy following single dose administration of Compound A were assessed in healthy male subjects by positron emission tomography (PET). For each PET scan, [11C]AS2471907 was administered by an intravenous infusion pump, followed by up to 120 minutes of dynamic PET data acquisition. Most subjects underwent two PET scans.

HSD-1 [4] = target: T1, HSD-1; assay: Direct sigmoidal Emax model of plasma concentration vs brain HSD-1 occupancy (ROIswa); type: in vivo; set-up: from tissue; host or cells: in vivo, human subjects; conditions: brain HSD-1 occupancy (ROIswa) vs plasma concentration
Description: Simulations of brain enzyme occupancy were conducted for several dosing schemes for Compound A that involved both an initial dose and a maintenance dose.
The relationship of Compound A plasma concentrations to region of interest size weighted average (ROIswa) HSD-1 occupancy in brain was best described by a direct sigmoidal Emax model (FIG. 5).

[5] = adults with painful diabetic peripheral neuropathy, 6 weeks treatment, descriptive analysis
[6] = elderly non-Japanese subjects, 20 mg, Day 1 single dose, 24 h urine
[7] = elderly non-Japanese subjects, 20 mg, Day 18 after daily doses Days 5 through 18, 24 h urine
[8] = healthy adult Japanese subjects, 10 mg, Day 1 single dose, 24 h urine
[9] = healthy adult Japanese subjects, 10 mg, Day 18 after daily doses Days 5 through 18, 24 h urine
[10] = healthy adult Japanese subjects, 20 mg, Day 1 single dose, 24 h urine
[11] = healthy adult Japanese subjects, 20 mg, Day 18 after daily doses Days 5 through 18, 24 h urine
[12] = healthy adult Japanese subjects, 50 mg, Day 1 single dose, 24 h urine
[13] = healthy adult Japanese subjects, 50 mg, Day 18 after daily doses Days 5 through 18, 24 h urine
[14] = healthy adult non-Japanese subjects, 20 mg, Day 1 single dose, 24 h urine
[15] = healthy adult non-Japanese subjects, 20 mg, Day 18 after daily doses Days 5 through 18, 24 h urine
[16] = healthy adult non-Japanese subjects, 50 mg, Day 1 single dose, 24 h urine
[17] = healthy adult non-Japanese subjects, 50 mg, Day 18 after daily doses Days 5 through 18, 24 h urine

Cn1c(-c2ccc(C(N)=O)cc2F)nnc1C(C)(C)Oc1c(F)cc(Cl)cc1F [Compound A]
Cholesterol [1, 5]: -0.48 ± 0.12 mM | Diastolic BP (mm Hg) [1, 5]: 0 ± 2 mm Hg | HbA1c (%) [1, 5]: −0.31 ± 0.11% | Plasma glucose [1, 5]: 0.084 ± 0.38 mM | Systolic BP (mm Hg) [1, 5]: −1 ± 3 mm Hg | Triglycerides [1, 5]: -0.11 ± 0.09 mM | Urine glucose (% positive) [1, 5]: −2.5 ± 3.0 % positive | Weight [1, 5]: -0.3 ± 0.3 kg | trends compared to placebo on HbA1c, plasma glucose, urine glucose, cholesterol and triglycerides (not on systolic or diastolic blood pressure or weight) ([1]; exploratory descriptive analysis, no hypothesis tests): Favorable numeric trends | pain relief compared to the placebo group ([1]; interim review after 150 subjects completed treatment): not any better | CS-dependent increase of tail biting behavior (magnesium-deficient mice): fully reversed | Y-maze novel arm exploration behavior (alternation rate) after corticosterone (mice): restored a more normal behavior pattern | number of doses to achieve full HSD-1 inhibition (HSD-1 [2]; dose level 0.4 mg): 9 to 11 doses | number of doses to achieve full HSD-1 inhibition (HSD-1 [2]; dose level 0.7 mg): 5 to 6 doses | number of doses to achieve full HSD-1 inhibition (HSD-1 [2]; dose level 2 mg): 2 doses | HSD-1 ratio, Day 1 Mean (HSD-1 [2]; [6]): 0.17 | HSD-1 ratio, Day 1 Median (HSD-1 [2]; [6]): 0.16 | HSD-1 ratio, Day 18 Mean (HSD-1 [2]; [7]): 0.11 | HSD-1 ratio, Day 18 Median (HSD-1 [2]; [7]): 0.11 | mean HSD-1 ratio (significantly decreased HSD-1 activity) (HSD-1 [2]; elderly non-Japanese subjects, 20 mg): approximately 0.1 | HSD-1 ratio (tetrahydrocortisol [5α + 5β]/tetrahydrocortisone), Day 1 Median (HSD-1 [2]; [8]): 0.19 | HSD-1 ratio (tetrahydrocortisol [5α + 5β]/tetrahydrocortisone), Day 1 mean (HSD-1 [2]; [8]): 0.18 | HSD-1 ratio (tetrahydrocortisol [5α + 5β]/tetrahydrocortisone), Day 18 Mean (HSD-1 [2]; [9]): 0.13 | HSD-1 ratio (tetrahydrocortisol [5α + 5β]/tetrahydrocortisone), Day 18 Median (HSD-1 [2]; [9]): 0.12 | HSD-1 ratio (tetrahydrocortisol [5α + 5β]/tetrahydrocortisone), Day 1 Median (HSD-1 [2]; [10]): 0.14 | HSD-1 ratio (tetrahydrocortisol [5α + 5β]/tetrahydrocortisone), Day 1 mean (HSD-1 [2]; [10]): 0.14 | HSD-1 ratio (tetrahydrocortisol [5α + 5β]/tetrahydrocortisone), Day 18 Mean (HSD-1 [2]; [11]): 0.09 | HSD-1 ratio (tetrahydrocortisol [5α + 5β]/tetrahydrocortisone), Day 18 Median (HSD-1 [2]; [11]): 0.10 | HSD-1 ratio (tetrahydrocortisol [5α + 5β]/tetrahydrocortisone), Day 1 Median (HSD-1 [2]; [12]): 0.14 | HSD-1 ratio (tetrahydrocortisol [5α + 5β]/tetrahydrocortisone), Day 1 mean (HSD-1 [2]; [12]): 0.14 | HSD-1 ratio (tetrahydrocortisol [5α + 5β]/tetrahydrocortisone), Day 18 Mean (HSD-1 [2]; [13]): 0.10 | HSD-1 ratio (tetrahydrocortisol [5α + 5β]/tetrahydrocortisone), Day 18 Median (HSD-1 [2]; [13]): 0.09 | mean HSD-1 ratio (significantly decreased HSD-1 activity) (HSD-1 [2]; healthy adult Japanese subjects, doses of 10 mg, 20 mg and 50 mg): 0.1 to 0.2 | HSD-1 activity (urinary ratio) (HSD-1 [2]; healthy adult non-Japanese subjects, 2 mg, 0.7 mg, 0.4 mg and 0.2 mg cohorts, single dose Day 1 then daily doses): significantly decreased | HSD-1 ratio (tetrahydrocortisol [5α + 5β]/tetrahydrocortisone), Day 1 Median (HSD-1 [2]; [14]): 0.16 | HSD-1 ratio (tetrahydrocortisol [5α + 5β]/tetrahydrocortisone), Day 1 mean (HSD-1 [2]; [14]): 0.17 | HSD-1 ratio (tetrahydrocortisol [5α + 5β]/tetrahydrocortisone), Day 18 Mean (HSD-1 [2]; [15]): 0.12 | HSD-1 ratio (tetrahydrocortisol [5α + 5β]/tetrahydrocortisone), Day 18 Median (HSD-1 [2]; [15]): 0.12 | HSD-1 ratio (tetrahydrocortisol [5α + 5β]/tetrahydrocortisone), Day 1 Median (HSD-1 [2]; [16]): 0.16 | HSD-1 ratio (tetrahydrocortisol [5α + 5β]/tetrahydrocortisone), Day 1 mean (HSD-1 [2]; [16]): 0.16 | HSD-1 ratio (tetrahydrocortisol [5α + 5β]/tetrahydrocortisone), Day 18 Mean (HSD-1 [2]; [17]): 0.11 | HSD-1 ratio (tetrahydrocortisol [5α + 5β]/tetrahydrocortisone), Day 18 Median (HSD-1 [2]; [17]): 0.10 | mean HSD-1 ratio (significantly decreased HSD-1 activity) (HSD-1 [2]; healthy adult non-Japanese subjects, doses of 20 mg and 50 mg): approximately 0.1 | inhibition (decrease of 5α-tetrahydrocortisol+5β-tetrahydrocortisol to urinary tetrahydrocortisone ratio compared to placebo) (HSD-1 [2]; healthy adult subjects, fasted, single dose 6 mg): approximately 80% | level of inhibition of urinary HSD-1 ratio on increasing the dose (HSD-1 [2]; healthy adult subjects, fasted, single dose above 6 mg): did not substantially increase the level of inhibition | Occupancy (ROIswa), PET Scan 1 (HSD-1 [3]; Subject A, 30 mg single dose, 2.62 hrs post dose): 99.68% | Occupancy (ROIswa), PET Scan 2 (HSD-1 [3]; Subject A, 30 mg single dose, 23.75 hrs post dose): 99.71% | Occupancy (ROIswa), PET Scan 1 (HSD-1 [3]; Subject B, 30 mg single dose, 27.43 hrs post dose): 99.97% | Occupancy (ROIswa), PET Scan 2 (HSD-1 [3]; Subject B, 30 mg single dose, 46.75 hrs post dose): 98.83% | Occupancy (ROIswa), PET Scan 1 (HSD-1 [3]; Subject C, 6 mg single dose, 3.25 hrs post dose): 99.73% | Occupancy (ROIswa), PET Scan 2 (HSD-1 [3]; Subject C, 6 mg single dose, 23.74 hrs post dose): 96.20% | Occupancy (ROIswa), PET Scan 1 (HSD-1 [3]; Subject D, 3 mg single dose, 3.27 hrs post dose): 89.91% | Occupancy (ROIswa), PET Scan 2 (HSD-1 [3]; Subject D, 3 mg single dose, 45.25 hrs post dose): 83.15% | Occupancy (ROIswa), PET Scan 1 (HSD-1 [3]; Subject E, 3 mg single dose, 19.2 hrs post dose): 88.16% | Occupancy (ROIswa), PET Scan 2 (HSD-1 [3]; Subject E, 3 mg single dose, 25.43 hrs post dose): 83.85% | Occupancy (ROIswa), PET Scan 1 (HSD-1 [3]; Subject F, 3 mg single dose, 42.19 hrs post dose): 58.87% | Occupancy (ROIswa), PET Scan 2 (HSD-1 [3]; Subject F, 3 mg single dose, 138.67 hrs post dose): 45.49% | Occupancy (ROIswa), PET Scan 1 (HSD-1 [3]; Subject G, 3 mg single dose, 42.46 hrs post dose): 70.96% | Occupancy (ROIswa), PET Scan 2 (HSD-1 [3]; Subject G, 3 mg single dose, 189.15 hrs post dose): 25.61% | Occupancy (ROIswa), PET Scan 1 (HSD-1 [3]; Subject H, 3 mg single dose, 43.85 hrs post dose): 56.39% | Occupancy (ROIswa), PET Scan 2 (HSD-1 [3]; Subject H, 3 mg single dose, 139.36 hrs post dose): 36.31% | Occupancy (ROIswa), PET Scan 1 (HSD-1 [3]; Subject I, 3 mg single dose, 46.24 hrs post dose): 60.92% | Occupancy (ROIswa), PET Scan 1 (HSD-1 [3]; Subject J, 2 mg single dose, 2.84 hrs post dose): <0% | Occupancy (ROIswa), PET Scan 1 (HSD-1 [3]; Subject K, 1 mg single dose, 3.24 hrs post dose): <0% | Occupancy (ROIswa), PET Scan 2 (HSD-1 [3]; Subject K, 1 mg single dose, 20.66 hrs post dose): <0% | Occupancy (ROIswa), PET Scan 1 (HSD-1 [3]; Subject L, 1 mg single dose, 22.55 hrs post dose): <0% | Occupancy (ROIswa), PET Scan 2 (HSD-1 [3]; Subject L, 1 mg single dose, 47.95 hrs post dose): <0% | enzyme occupancy (HSD-1 [3]; single 2 and 1 mg doses): no enzyme occupancy was detected | HSD-1 occupancy (HSD-1 [3]; 19.2-25.43 hours post dose): ~86% | HSD-1 occupancy (HSD-1 [3]; 42.19-46.24 hours post dose): 60-80% | HSD-1 occupancy (HSD-1 [3]; 138.67-139.36 hours post dose): ~40% | HSD-1 occupancy (HSD-1 [3]; 3.25 hours post dose): ~90% | HSD-1 occupancy (HSD-1 [3]; 189.15 hours post dose): 26% | region of interest size weighted average (ROIswa) HSD-1 occupancy (HSD-1 [3]; single doses of 30 and 6 mg, scan times 2.62 to 46.75 hours post dose): > 96% | Hill coefficient, estimate (HSD-1 [4]): 1.53 | Maximum effect, Emax (% HSD-1 occupancy), estimate (HSD-1 [4]): 97.6% | EC50 (HSD-1 [4]; read-out: Plasma concentration when half Emax is achieved, EC50, estimate (converted)): 240 pM
